{"source": "paper PMC11679793", "about": "“Structure-Activity Relationship Study of Majusculamide D: Overcoming Metabolic Instability and Severe Toxicity with a Fluoro Analogue” (Marine Drugs, 2024)", "key": {"[1]": {"test": "Preliminary water solubility test", "format": "physicochemical", "conditions": "25 °C, ultrasonic treatment 30 min, visual"}, "pancreatic cancer cells [2]": {"tested_on": "pancreatic cancer cells", "test": "Clone formation assay", "format": "cell-based", "conditions": "48 h treatment then 10 days culture, concentration-dependent, vs control", "excerpt": "dependent manner (Figure S1C). […]\ngrowth and survival of pancreatic cancer cells. […]\nSnail and TCF8/ZEB1 both […]\nare transcription factors that can inhibit the expression of E-cadherin and promote the EMT process. Vimentin is a marker protein of mesenchymal cells, and its expression increases during EMT, further contribute to the process of metastasis by supporting the structural changes needed for cell migration and invasion.\nWe examined the effects of compound 1a on above key proteins involved in tumor progression pathways employing Western blot analysis in PANC-1 cells and MIA PaCa-2 […]\n1a might inhibit cancer cell invasion and migration by enhancing cell-cell adhesion and barrier function. Conversely, the expression levels of β-catenin, Fibronectin, Snail, […]\nCells were resuspended at a concentration of 300 cells/mL, and 2 mL of the suspension was added to each well of a 6-well plate. After the cells adhered to the plate, the compound was added, and the cells were incubated for 48 hours, followed by replacement with fresh medium. The cells were then cultured for an additional 10 days. Subsequently, the cells were fixed with methanol and stained with crystal violet. The colonies were imaged under a microscope and quantified using ImageJ.\nThe BeyoClick™ EdU-488 Cell Proliferatio n Assay Kit (Beyotime Biotechnology, China) was used according to the manufacturer's instructions. […]"}, "PANC-1 cells": {"tested_on": "PANC-1 cells", "test": "MTT cell activity assay (inhibitory activity against PANC-1 cells)", "format": "cell-based", "protocol": "A total of 3000 PANC-1 cells were resuspended in 200 μL of culture medium and seeded into 96-well plates. After 24 h, the cells were treated with the compound and incubated for an additional 72 h. Following the incubation, 20 μL of 5 mg/mL MTT solution (Solarbio, China) was added to each well in the dark, and the cells were incubated for another 4 h. After incubation, the culture medium was discarded, and the wells were washed with PBS to remove any residual medium. Then, 200 μL of DMSO was added to each well to fully dissolve the formazan crystals, and the solution was mixed thoroughly. The absorbance was measured at 492 nm/570 nm, and the data were analyzed using GraphPad Prism."}, "pancreatic cancer cells [3]": {"tested_on": "pancreatic cancer cells", "set-up": "method as in PMID 30673235", "conditions": "cited from earlier work"}, "[4]": {"tested_on": "β-catenin, Claudin-1, E-cadherin, Fibronectin, Snail, TCF8/ZEB1, Vimentin in PANC-1 cells and MIA PaCa-2 cells", "test": "Western blot assay of Wnt/EMT biomarkers", "format": "cell-based", "conditions": "PANC-1 and MIA PaCa-2 cells", "excerpt": "It is well established that the metastasis of tumors was accompanied by the change of several special proteins. β-catenin is an intracellular signaling molecule primarily involved in the Wnt signaling pathway and regulates cell proliferation and differentiation. The abnormal activation of β-catenin is associated with tumor development and increased invasiveness. Claudin-1 belongs to the tight junction protein family, which maintains the barrier function between cells and is correlated with some cancers’ metastatic ability. E-cadherin is an intercellular adhesion molecule, and its decreased expression is common in the phenotype transition process of cancer cells, such as epithelial-mesenchymal transition (EMT), which is a key step in cancer metastasis. Fibronectin is an extracellular matrix protein involved in cell adhesion and migration, and its expression is often positively associated with cancer’s metastatic ability. Snail and TCF8/ZEB1 both are transcription factors that can inhibit the expression of E-cadherin and promote the EMT process. Vimentin is a marker protein of mesenchymal cells, and its expression increases during EMT, further contribute to the process of metastasis by supporting the structural changes needed for cell migration and invasion. […]\nCells were lysed in RIPA lysis buffer (Solarbio, China). The protein concentration was determined using the BCA assay. […]"}}, "note": "Read-outs that look alike come from different tables or passages of the source.", "data": [{"compound": "CCCCC(C)CC(C)C(=O)N(C)C(Cc1ccc(OC)cc1)C(=O)NC(C(=O)N(C)C(C(=O)N1CC(O)CC1C(=O)N1C(=O)C=CC1C)C(C)C)C(C)OC(C)=O", "note": "(stereo not shown) [Compound 1a, Majusculamide D]", "values": [{"measurement": "Solubility (mg/mL)", "setting": "[1]", "result": "Insoluble"}, {"measurement": "colony formation", "setting": "pancreatic cancer cells [2]", "result": "remarkably reduced colony formation"}, {"measurement": "IC50", "setting": "PANC-1 cells; Homo sapiens, PANC-1, 72 h, read-out: IC50 (nM), inhibitory activity against PANC-1 cells (Table 2), PANC-1 cells, 72 h incubation, mean ± SD, n = 3, Table 2 series", "result": "1.99 ± 0.68", "unit": "nM"}, {"measurement": "IC50", "setting": "PANC-1 cells; read-out: IC50 (nM), inhibitory activity against PANC-1 cells (Table 1), PANC-1 cells, 72 h incubation, mean ± SD, n = 3", "result": "1.88 ± 0.82", "unit": "nM"}, {"measurement": "selectivity against pancreatic cancer cells in vitro", "setting": "pancreatic cancer cells [3]", "result": "up to 4 × 10^3"}, {"measurement": "expression levels of β-catenin, Fibronectin, Snail, TCF8/ZEB1 and Vimentin", "setting": "[4]; increasing concentrations", "result": "decreased"}, {"measurement": "expression levels of Claudin-1 and E-cadherin", "setting": "[4]; rising concentrations", "result": "increased"}]}]}
